Results from patent US20040127489A1, “Novel antipsychotic combination therapies and compositions useful therein” (priority 2002, published 2004).

Columns and labels:
D2 receptor = D2 receptor (Homo sapiens, UniProt P14416); settings: Merck Manual 17th Edition; cited from earlier work
α2 autoreceptors = settings: presynaptic; Martire et al. 1988; cited from earlier work
α2 adrenoreceptors = settings: Martire et al. 1988; cited from earlier work
Wistar rats = assay: Conditioned avoidance response (CAR) behavior in rats; assay type: in vivo; settings: rat CAR; adjunct treatment with idazoxan
Source text: Food and water were available ad libitum.
Rats were trained and tested in a conventional, manually operated two-way active avoidance (shuttlebox) apparatus connected to a high resistance power supply. The box was divided into two compartments of equal size by a partition with one opening. Upon presentation of the 80 dB white noise conditioned stimulus (CS), the animals had 10 seconds to move from one compartment of the shuttlebox into the other. If the rat remained in the same compartment for more than 10 seconds, an intermittent electric shock (approx. 0.2 mA of 0.5-sec duration; intershock interval 2.5 sec), the unconditioned stimulus (UCS), was presented in the grid floor until an escape was performed. […] Intertrial intervals varied at random between 20 and 40 seconds. The following variables were recorded: avoidance (response to CS within 10 sec); escape (response to CS+UCS); escape failures (failure to respond); and intertrial crosses. The animals were trained for 3 consecutive days. Training sessions were run over 15 minutes. A final test session (7.5 minutes) was performed on the day immediately prior to the first experimental day, and only animals performing at the 100% correct level were assigned to the experiment. Experimental manipulations were always preceded by a pretest. […]

[1] = test system: α2 adrenergic receptor versus dopamine D2 receptor; settings: literature; cited from earlier work
[2] = idazoxan 120 mg/day added to 1000 mg chlorpromazine equivalents of fluphenazine; Litman et al. 1996; cited from earlier work

Sequence of D2 receptor (P14416 whole entry): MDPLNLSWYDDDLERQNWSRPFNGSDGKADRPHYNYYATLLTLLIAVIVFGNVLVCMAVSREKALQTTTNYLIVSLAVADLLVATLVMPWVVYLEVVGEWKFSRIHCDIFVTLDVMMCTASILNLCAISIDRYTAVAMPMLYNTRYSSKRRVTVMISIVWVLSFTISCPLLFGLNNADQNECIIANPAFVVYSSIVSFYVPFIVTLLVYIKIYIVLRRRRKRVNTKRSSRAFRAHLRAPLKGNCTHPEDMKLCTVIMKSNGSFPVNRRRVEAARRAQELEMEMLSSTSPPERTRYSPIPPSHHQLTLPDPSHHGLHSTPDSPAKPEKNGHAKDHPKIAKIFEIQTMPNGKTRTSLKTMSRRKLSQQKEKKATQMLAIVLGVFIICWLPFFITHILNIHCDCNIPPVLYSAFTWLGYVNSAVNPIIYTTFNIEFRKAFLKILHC

OCCN1CCN(CCCN2c3ccccc3Sc3ccc(C(F)(F)F)cc32)CC1 [fluophenazine, fluphenazine]
dose corresponding to 1000 mg chlorpromazine equivalents (D2 receptor): 20 mg

c1ccc2c(c1)OCC(C1=NCCN1)O2 (single isomer, unassigned; (+)) [(+)-idazoxan]
affinity towards the α2 autoreceptors relative to (−) idazoxan (α2 autoreceptors): 40 times
potency in inhibiting p-[3H]aminoclonidine binding relative to (−) idazoxan (α2 adrenoreceptors): 7-8 times

Cc1cc2c(s1)Nc1ccccc1N=C2N1CCN(C)CC1 [olanzapine]
reduction of the olanzapine dose required for an effective antipsychotic effect through adjunct idazoxan (Wistar rats): ~50%

O=C1NCCN1CCN1CCC(c2cn(-c3ccc(F)cc3)c3ccc(Cl)cc23)CC1 [sertindole]
dose corresponding to 1000 mg chlorpromazine equivalents (D2 receptor): 24 mg

OCCOCCN1CCN(C2=Nc3ccccc3Sc3ccccc32)CC1 [quetiapine]
dose corresponding to 1000 mg chlorpromazine equivalents (D2 receptor): 900 mg

O=C1Cc2cc(CCN3CCN(c4nsc5ccccc45)CC3)c(Cl)cc2N1 [ziprasidone]
fold less affinity for the α2 adrenergic receptor than for the dopamine D2 receptor [1]: 100 fold

c1ccc2c(c1)OCC(C1=NCCN1)O2 (racemic) [idazoxan, ±-2-(1,4-benzodioxan-2-yl)-d-imidazoline]
clinical response [2]: adequate clinical responses
